# Experimental data: patent US5981517A, “Androstene derivatives” (priority 1997, dated 1999)
# Tests used:
# [1] = target: T1, rat lung glucocorticoid receptor (Rattus norvegicus, UniProt P06536); assay: Receptor binding studies ([3H]triamcinolone acetonide displacement)
# T1 construct: Immediately after resection of the lungs, the tissue was frozen in ice; The cytosol was prepared; from tissue; host or cells: lung cytosol of adrenalectomized male Sprague-Dawley rats
# T1 sequence (P06536 1-795): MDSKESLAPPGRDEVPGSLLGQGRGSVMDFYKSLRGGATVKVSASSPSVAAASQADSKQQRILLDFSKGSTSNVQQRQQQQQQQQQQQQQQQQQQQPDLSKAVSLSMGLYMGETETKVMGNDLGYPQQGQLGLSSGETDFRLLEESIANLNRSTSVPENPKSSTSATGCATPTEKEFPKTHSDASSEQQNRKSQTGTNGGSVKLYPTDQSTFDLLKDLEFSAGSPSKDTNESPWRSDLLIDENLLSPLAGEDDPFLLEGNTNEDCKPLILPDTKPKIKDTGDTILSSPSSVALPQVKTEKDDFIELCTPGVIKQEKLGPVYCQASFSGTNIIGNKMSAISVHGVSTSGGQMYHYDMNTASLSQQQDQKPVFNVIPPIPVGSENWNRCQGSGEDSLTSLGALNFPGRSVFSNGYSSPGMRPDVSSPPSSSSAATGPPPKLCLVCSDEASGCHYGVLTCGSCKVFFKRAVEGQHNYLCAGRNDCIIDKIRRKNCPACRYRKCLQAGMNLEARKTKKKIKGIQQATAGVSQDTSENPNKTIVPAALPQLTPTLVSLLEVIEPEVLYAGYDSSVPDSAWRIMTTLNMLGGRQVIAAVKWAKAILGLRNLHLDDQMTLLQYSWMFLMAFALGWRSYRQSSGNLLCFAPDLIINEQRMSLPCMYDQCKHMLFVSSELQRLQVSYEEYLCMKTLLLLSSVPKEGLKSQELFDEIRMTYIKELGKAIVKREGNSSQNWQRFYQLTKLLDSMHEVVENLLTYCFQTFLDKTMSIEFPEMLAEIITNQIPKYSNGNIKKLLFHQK
# Protocol: Male Sprague-Dawley rats, each weighing 150 to 200 g, were used 6 days after adrenalectomy. Rats were sacrificed by decapitation. Immediately after resection of the lungs, the tissue was frozen in ice. […] Portions (5 ml) of the cytosol were frozen in liquid nitrogen and stored at -80° C.
# The cytosol was thawed in a water bath and diluted with 1 part of incubation buffer containing a 15 mM concentration of diisopropyl fluorophosphate. […] After a 2 hour incubation period at room temperature (24° C.), the unbound steroid was removed by addition of a 2% suspension of activated charcoal in incubation buffer (400 μL). The mixture was incubated for 5 minutes at room temperature and then was centrifuged at about 10,000 g for 3 minutes in the microcentrifuge. The radioactivity (cpm) in the supernatant (400 μL) was determined by liquid scintillation counting.
# The data is fitted to the following logistic function:
# B=T-T * C^N /(C^N +IC50^N)+NS,
# where B=CPM in the presence of competitor, T=CPM in the absence of competitor, C=competitor concentration, N=Hill slope factor, and NS=cpm under non-specific binding conditions.
# For the representative compound of the invention B, receptor binding affinity was investigated with and without Δ^1 -cortienic acid in the incubation solution to study the effect of Δ^1 -cortienic acid on the receptor binding.
# Further studies to evaluate the relative receptor binding affinities of compounds of the invention, other compounds of formula (VII) hereinabove and well-known anti-inflammatory steroids were undertaken, using the methods described in the RECEPTOR BINDING STUDIES set forth above. […] For comparison purposes, the following compounds having formula (VII) above were also tested: […]
# [2] = test system: forearms of a human volunteer; assay: Further human vasoconstriction testing, Method 1; type: in vivo; settings: 10 mM; note: key: 0: normal skin; 1: slight pallor of indistinct outline; 2: pallor with at least two corners outlined; 3: even pallor with a clear outline of the application sites; 4: very intense pallor
# Outline: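 Each mixture, 50 μL in ethanol, was loaded onto circular 8 mm patches. Once the ethanol had evaporated, the patches were placed on a human volunteer's forearms under a water-impervious film for 3 hr. After the patches were removed, vasoconstriction was scored at intervals from 0 (normal skin) to 4 (very intense pallor). The same individual received all tests, run 2-4 times per compound.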
# in vitro = in vitro ADME; settings: rat, lung cytosol
# Protocol: To determine that the compounds of the invention can be stable during the incubation period, the test compounds A, B, C, and D were investigated for their stabilities at the incubation conditions, which are room temperature and 2 hours, for receptor binding studies. The frozen cytosol which was made for the receptor binding study was thawed in a water bath and diluted with 1 part of incubation buffer (10 mM Tris/HCl, 10 mM sodium molybdate, and 2 mM 1,4-dithiothreitol) containing a 15 mM concentration of enzyme inhibitor, diisopropyl fluorophosphate. Portions (560 μL) of the diluted cytosol were added to centrifuge tubes containing 80 μL portions of blank incubation buffer instead of volume of tracer ([^3 H]triamcinolone acetonide) which would be used in the receptor binding study (RBS), 80 μL of solution of a Δ^1 -cortienic acid (0.1 mM) in buffer (the final concentration of Δ^1 -cortienic acid in the incubation medium was […]), and 80 μL of 100,000 nM of concentrations of test compounds in ethanol to give a final concentration of 10,000 nM. This mixture was kept at room temperature for 2 hours. Samples of 0.1 mL were taken at appropriate time intervals (0, 0.5, 1, 1.5, 2 hours) and were mixed with 0.2 mL of acetonitrile containing 5% DMSO. Each mixture was centrifuged and the supernatant were injected in the HPLC.
# Male Sprague-Dawley rats, each weighing 150 to 200 g, were used 6 days after adrenalectomy. Rats were sacrificed by decapitation. Immediately after resection of the lungs, the tissue was frozen in ice. The cytosol was prepared using a slight modification of a previously described method (Dahlberg, 1984); After addition of 6 volumes of ice-cold incubation buffer (10 mM Tris/HCl, 10 mM sodium molybdate, and 2 mM 1,4-dithiothreitol), the tissue was homogenized with the Virtis 45 homogenizer at full speed, for 4 periods of 10 seconds with a 10-second cooling period between each step. The homogenate was centrifuged at 35,000 g for 1 hour at 4° C. in a Beckman ultracentrifuge L8-70M equipped with a T170 rotor. Portions (5 ml) of the cytosol were frozen in liquid nitrogen and stored at -80° C.
compound,measurement,setting,value
"CC(C)OC(=O)[C@@]1(OC(=O)C(Cl)Cl)CC[C@H]2[C@@H]3CCC4=CC(=O)C=C[C@]4(C)[C@H]3[C@@H](O)C[C@@]21C [Compound C, Isopropyl 17α-dichloroacetoxy-11β-hydroxyandrosta-1,4-dien-3-one-17β-carboxylate]",RBA,"[1]; further receptor binding studies (Table X), dexamethasone = 100, * mean ± SE of 3-5 results",117
same,IC50,"[1]; rat lung cytosol, 10 nM [3H]triamcinolone acetonide, with Δ1-cortienic acid, 2 h, 24° C., read-out: IC50",69.8 nM
same,Relative binding affinity (RBA),"[1]; with respect to dexamethasone (RBA = 100), with Δ1-cortienic acid",117
same,Vasoconstriction activity,[2]; 3 Hours,4
same,Vasoconstriction activity,[2]; 20 Hours,1
same,remaining at 2 h,in vitro,> 90%
same,"remaining at 2 h, 10 µM",in vitro,100%
